Where two headings read alike, the source gives them in different places. Square brackets hold non-standard residues; d marks the D form. Ends that are not written are not given here. Peptide text beside a SMILES is read from it.
Legend:
[1] = test system: B. cereus; format: cell-based
Outline: (§1)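 Bacterial suspensions (~5×10^6 CFU/ml) and serially diluted peptides, both in low-nutrient phosphate buffer (pH 7.2, 0.03% LB), are combined and held 3 h at 37 °C. Full LB is added for overnight growth. The MIC marks no growth, and IC50 marks 50% growth relative to medium.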

[2] = test system: E. coli DH5a; format: cell-based
Outline: as §1

[3] = test system: Salmonella; format: cell-based, S. typhimurium
Outline: as §1

[4] = test system: bacteria; experiment: Activity in DMEM and RPMI media (lysis of bacteria); format: cell-based; parameters: key to Active in DMEM: YES: Active in DMEM; a blank means no activity; conditions: Table 2; tested in DMEM and RPMI
Method: (§2) The CFU assay is the “gold standard” for evaluating antibiotics. Briefly, bacteria are grown overnight in rich medium, such as LB, and then diluted and grown in log phase for 2-4 hours. Cultures are set up as above, with the initial culture media being 10 mM phosphate buffer/0.03% LB; DMEM or RPMI; or DMEM or RPMI plus 10% serum (fetal calf, human, or mouse). After various periods of time, but generally 3 hours or less, aliquots are removed, diluted in LB at various dilutions, and plated on LB agar plates. Plates are incubated overnight at 37° C. and counted on an automatic colony counter.
In the column “Active in DMEM”, a blank means no activity. MAP stands for multiple antigenic peptide, where a number of identical peptide chains are synthesized and joined to a common core (like a dendrimer).
The peptides listed in Table 2 were tested in DMEM and RPMI, media that approximate blood and tissue conditions in vivo and those that were active under these conditions are listed in the last column (active in DMEM). […] No peptides that were all L-isomer peptides lysed bacteria in DMEM supplemented with serum.
The hydrophobic moment is a measure of amphipathicity and indicates how well the hydrophobic residues fall on one side of the helix while the hydrophilic residues fall on the opposite side is shown in column 7. This was determined using the Membrane Explorer Program (http://blanco.biomol.uci.edu/mpex/). A high number indicates a high hydrophobic moment. Column 8 again (like Table 2) indicates which of these peptides is active in DMEM.

[5] = test system: bacteria; experiment: Activity in serum containing media (10% FCS in DMEM or RPMI); format: cell-based; conditions: for active in serum containing media: 10% FCS in DMEM or RPMI
Method: as §2
Tests were conducted in low salt concentrations so that active peptide candidates could be identified more readily. It is important for in vivo applications that the present antimicrobial peptides be active in physiological salt concentrations (150 mM) as well as in the presence of other tissue components, such as blood plasma (serum). Serum may contain proteases that destroy peptides; the use of D-amino acids can improve protease resistance. See G12.21. […] Also active were G11.6, G11.26, G11.29, G11.30, G11.34, G11.35, G12.11, G12.19, G12.20 and G12.21. […]

[6] = 10 mM phosphate buffer, pH 7.2, 0.03% LB

Row | Compound | B. cereus MIC ([1]; pH 7.2) | IC50 ([1]; pH 7.2) | E. coli DH5a MIC ([2]; DH5a, pH 7.2) | IC50 ([2]; DH5a, pH 7.2) | IC50 ([3]; pH 7.2) | Salmonella MIC ([3]; pH 7.2) | Active in DMEM [4] | active in serum containing media [5] | active in physiological salt concentrations (150 mM) and presence of serum [5] | B. cereus MIC [1, 6] | IC50 ([1]; 10 mM phosphate buffer, pH 7.2, 0.03% LB, read-out: B. cereus IC50) | E. coli DH5a MIC [2, 6] | IC50 ([2]; 10 mM phosphate buffer, pH 7.2, 0.03% LB, read-out: E. coli DH5a IC50) | Salmonella MIC [3, 6] | IC50 ([3]; 10 mM phosphate buffer, pH 7.2, 0.03% LB, read-out: Salmonella IC50)
1 | RDVSRRFMRRGSRDVSRRFMRR [Peptide G11.6] | 2.4 µM | 0.89 µM | 0.7 µM | 0.45 µM | 0.89 µM | 1.4 µM | YES | active |  |  |  |  |  |  | 
2 | RRVSRRPMRRYRSRRPRRLV [Peptide G12.12] | 0.35 µM | 0.21 µM | 0.35 µM | 0.21 µM | 0.21 µM | 0.35 µM | YES |  | active in such conditions |  |  |  |  |  | 
3 | CSCC[C@H](NC(=O)[C@H](Cc1ccccc1)NC(=O)[C@@H](CCCNC(=N)N)NC(=O)[C@@H](CCCNC(=N)N)NC(=O)[C@H](CO)NC(=O)[C@H](NC(=O)[C@@H](CCCNC(=N)N)NC(=O)[C@@H](N)CCCNC(=N)N)C(C)C)C(=O)N[C@H](CCCNC(=N)N)C(=O)N[C@@H](CCCNC(=N)N)C(=O)O [Peptide G11.34, RrvSrrFMrR] (H-R[dR][dV]S[dR][dR]FM[dR]R-OH; N-terminus and C-terminus assumed) | >10 µM | > 10 µM | 0.7 µM | 0.41 µM | 1.6 µM | 2.8 µM | YES | active |  |  |  |  |  |  | 
4 | CSCC[C@@H](NC(=O)[C@H](Cc1ccccc1)NC(=O)[C@@H](CCCNC(=N)N)NC(=O)[C@@H](CCCNC(=N)N)NC(=O)[C@H](CO)NC(=O)[C@H](NC(=O)[C@H](CCCNC(=N)N)NC(=O)[C@@H](N)CCCNC(=N)N)C(C)C)C(=O)N[C@@H](CCCNC(=N)N)C(=O)N[C@@H](CCCNC(=N)N)C(=O)O [Peptide G11.35, RRvSrrFmRR] (H-RR[dV]S[dR][dR]F[dM]RR-OH; N-terminus and C-terminus assumed) | >10 µM | > 10 µM | 0.7 µM | 0.41 µM | 3.25 µM | 5.7 µM | YES | active |  |  |  |  |  |  | 
5 | RRVSRPPPRRYRSRRPRRLV [Peptide G12.19] | 0.35 µM | 0.21 µM | 0.75 µM | 0.22 µM | 0.73 µM | 1.38 µM | YES | active |  |  |  |  |  |  | 
6 | CRRVSRRFMRRC [G11.29 CYC] |  |  |  |  |  |  | YES | active |  | 1.39 µM | 0.89 µM | 1.4 µM | 0.75 µM | 2.8 µM | 1.75 µM

From US7745390B2, “Antimicrobial peptides” (priority 2005, dated 2010)
